Like-named read-outs stand apart in the source and are kept apart here.
Columns and labels:
PD-1/PD-L1 = PD-1/PD-L1 (Homo sapiens (Human), UniProt Q9NZQ7); test: PD-1/PD-L1 biochemical protein-protein interaction assay (ALPHA); format: binding; conditions: read-out: IC50 PD-L1-PD1
PD-L1 = PD-L1 (Homo sapiens (Human), UniProt Q9NZQ7); test: PD-L1/PD-L1 dimerization biochemical protein-protein interaction assay (ALPHA); format: binding; conditions: read-out: AC50 PDL1 Dimer 1 nM
[1] = 0.3 nM His tagged PD-L1, 2.5 nM biotinylated Fc-PD-1, readings of 0.064 nM are equal to or less than 0.064 nM
[2] = 0.5 nM His tagged PD-L1 and 0.5 nM FLAG tagged PD-L1, Table 4A
[3] = 0.3 nM His tagged PD-L1, 2.5 nM biotinylated Fc-PD-1, Table 3B
[4] = 0.5 nM His tagged PD-L1 and 0.5 nM FLAG tagged PD-L1, Table 4B

Sequence of PD-1/PD-L1 (Q9NZQ7 19-238): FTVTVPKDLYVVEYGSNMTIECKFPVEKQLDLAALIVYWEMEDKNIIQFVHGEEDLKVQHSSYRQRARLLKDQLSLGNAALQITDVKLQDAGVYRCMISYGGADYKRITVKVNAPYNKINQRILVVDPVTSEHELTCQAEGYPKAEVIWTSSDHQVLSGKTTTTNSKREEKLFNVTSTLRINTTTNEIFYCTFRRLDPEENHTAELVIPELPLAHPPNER
Sequence of PD-L1 (Q9NZQ7 19-238): as above
Sequence of PD-L1 (Q9NZQ7 19-238): as above

Row | Compound | IC50 (PD-1/PD-L1; [1]) [nM] | AC50 (PD-L1; [2]) [nM] | IC50 (PD-1/PD-L1; [3]) [nM] | AC50 (PD-L1; [4]) [nM]
1 | COc1nc(-c2cccc(-c3cccc4c3CC[C@@H]4Nc3nc(OC)c(CN4CC5(C(=O)O)CCC4CC5)cc3Cl)c2Cl)ccc1CNC[C@@H]1CCC(=O)N1 [A-5] | ≤ 0.064 | 113 | – | –
2 | COc1nc(-c2cccc(-c3cccc4c3CC[C@@H]4Oc3nc(OC)c(CN4[C@@H]5C[C@@H]5C[C@H]4C(=O)O)cc3C(F)(F)F)c2Cl)ccc1CNC[C@@H]1CCC(=O)N1 [B-136] | – | – | 0.064 | 11
3 | COc1nc(O[C@H]2CCc3c(-c4cccc(-c5ccc(CNC[C@@H]6CCC(=O)N6)c(Cl)c5)c4Cl)cccc32)c(Cl)cc1CNC1(C(=O)O)CC1 [B-116] | – | – | 0.064 | 35.5
4 | COc1nc(-c2cccc(-c3cccc4c3CC[C@@H]4Oc3nc(OC)c(CNCC4(C(=O)O)CC4)cc3C(F)(F)F)c2Cl)ccc1CN[C@H]1C[C@](C)(O)C1 [B-251] | – | – | 0.064 | 17.7
5 | COc1nc(-c2cccc(-c3cc(F)cc4c3CC[C@@H]4Oc3nc(OC)c(CN4CC5(C(=O)O)CCC4CC5)cc3C(F)(F)F)c2Cl)ccc1CNC[C@@H]1CCC(=O)N1 [B-216] | – | – | 0.064 | 20.1
6 | COc1nc(-c2cccc(-c3cccc4c3CC[C@@H]4Oc3nc(OC)c(CN4CC(C(=O)O)C4)nc3Cl)c2Cl)cnc1CNC[C@@H]1CCC(=O)N1 [B-44] | – | – | 0.064 | 17.9
7 | COc1nc(-c2cccc(-c3cccc4c3CC[C@@H]4Nc3nc(OC)c(CN[C@@H](C)C(N)=O)nc3C(F)(F)F)c2Cl)ccc1CNC[C@@H]1CCC(=O)N1 [A-102] | ≤ 0.064 | 43.1 | – | –
8 | COc1nc(-c2cccc(-c3cccc4c3CC[C@@H]4Oc3nc(OC)c(CN4CC(C(=O)O)C4C)cc3Cl)c2Cl)ccc1CNC[C@@H]1CCC(=O)N1 (some centres unmarked) [B-9] | – | – | 0.064 | 19.2
9 | COc1nc(-c2cccc(-c3cccc4c3CC[C@@H]4Oc3nc(OC)c(CNC[C@@H]4CCC(=O)N4)nc3Br)c2Cl)cnc1CNC[C@@H]1CCC(=O)N1 [B-38] | – | – | 0.095 | 46.5
10 | COC(=O)[C@H](C)NCc1nc(C(F)(F)F)c(N[C@H]2CCc3c(-c4cccc(-c5ccc(CNC[C@@H]6CCC(=O)N6)c(OC)n5)c4Cl)cccc32)nc1OC [A-99] | 0.397 | 110 | – | –
11 | COc1nc(-c2cccc(-c3cccc4c3CC[C@@H]4Nc3nc(OC)c(CN(C)[C@@H](C)C(=O)O)nc3C(F)(F)F)c2Cl)ccc1CNC[C@@H]1CCC(=O)N1 [A-96] | ≤ 0.064 | 3.97 | – | –
12 | COc1nc(-c2cccc(-c3cccc4c3CC[C@@H]4Oc3nc(OC)c(CN4CCC5(C(=O)O)CC45)cc3Cl)c2Cl)ccc1CNC[C@@H]1CCC(=O)N1 (some centres unmarked) [B-26] | – | – | 0.064 | 18.4
13 | COc1nc(-c2cccc(-c3cccc4c3CC[C@@H]4Oc3nc(OC)c(CNCC(C)(C)C(=O)O)cc3C(F)(F)F)c2Cl)ccc1CN[C@H]1C[C@](C)(O)C1 [B-252] | – | – | 0.064 | 18
14 | COc1nc(O[C@H]2CCc3c(-c4cccc(-c5ccc(CNC[C@@H]6CCC(=O)N6)c(OCC#N)n5)c4Cl)cccc32)c(Cl)cc1CNC1(C(=O)O)CC1 [B-14] | – | – | 0.064 | 15.7
15 | COc1nc(-c2cccc(-c3cccc4c3CC[C@@H]4Nc3nc(OC)c(CNCC(=O)O)nc3C(F)(F)F)c2Cl)ccc1CNC[C@H]1C[C@H](O)C1 [A-49] | ≤ 0.064 | 10.7 | – | –
16 | COc1nc(-c2cccc(-c3cccc4c3CC[C@@H]4Nc3nc(OC)c(CN4CCC5CC4(C(=O)O)C5)nc3C(F)(F)F)c2Cl)ccc1CNC[C@@H]1CCC(=O)N1 [A-70] | ≤ 0.064 | 15.6 | – | –
17 | COc1nc(-c2cccc(-c3cccc4c3CC[C@@H]4Oc3nc(OC)c(CNC(C)(C)C(=O)O)cc3C(F)(F)F)c2Cl)ccc1CN[C@H]1C[C@](C)(O)C1 [B-1] | – | – | 0.064 | 1.11
18 | COc1nc(-c2cccc(-c3cccc4c3CC[C@@H]4Oc3nc(OC)c(CN4CC[C@@H](C(=O)N=S(C)(N)=O)C4)cc3Cl)c2Cl)ccc1CNC[C@@H]1CCC(=O)N1 (some centres unmarked) [B-164] | – | – | 0.27 | 66.9
19 | COc1nc(O[C@H]2CCc3c(-c4cccc(-c5cc(C)c(CN6CC(C(=O)O)C7(CC7)C6)c(OC)n5)c4Cl)cccc32)c(Cl)cc1CNC[C@@H]1CCC(=O)N1 (some centres unmarked) [B-123] | – | – | 0.064 | 133
20 | COc1nc(-c2cccc(-c3cccc4c3CC[C@@H]4Oc3nc(OC)c(CN4CC5(C(=O)O)CCC4CC5)nc3Cl)c2Cl)cnc1CNC[C@@H]1CCC(=O)N1 [B-45] | – | – | 0.064 | 20.2

Row | Compound | IC50 (PD-1/PD-L1; [1]) [nM] | AC50 (PD-L1; [2]) [nM] | IC50 (PD-1/PD-L1; [3]) [nM] | AC50 (PD-L1; [4]) [nM]
21 | COc1nc(-c2cccc(-c3cccc4c3CC[C@@H]4Oc3nc(OC)c(CN4CC(C)(O)C4)cc3C(F)(F)F)c2Cl)ccc1CNC[C@@H]1CCC(=O)N1 [B-260] | – | – | 0.064 | 18
22 | COc1nc(O[C@H]2CCc3c(-c4cccc(-c5cc(F)c(CNC[C@@H]6CCC(=O)N6)c(OC)n5)c4Cl)cccc32)c(C(F)(F)F)cc1CN1CC[C@H](C(=O)O)C1 [B-188] | – | – | 0.064 | 12
23 | COc1nc(O[C@H]2CCc3c(-c4cccc(-c5cc(F)c(CNC[C@@H]6CCC(=O)N6)c(OC)n5)c4Cl)cccc32)c(Cl)cc1CN1CC(C(=O)O)C1 [B-142] | – | – | 0.064 | 38.9
24 | COc1cc(O[C@H]2CCc3c(-c4cccc(-c5ccc(CNC[C@@H]6CCC(=O)N6)c(OC)n5)c4Cl)cccc32)c(C(F)(F)F)cc1CN1CC[C@H](C(=O)O)C1 [B-165] | – | – | 0.064 | 24.6
25 | COc1nc(-c2cccc(-c3cccc4c3CC[C@@H]4Nc3nc(OC)c(CNCC(N)=O)nc3C(F)(F)F)c2Cl)ccc1CNC[C@@H]1CCC(=O)N1 [A-103] | ≤ 0.064 | 40.2 | – | –
26 | COc1nc(-c2cccc(-c3cccc4c3CC[C@@H]4Oc3nc(OC)c(CN4CC(C)(O)C4)cc3Cl)c2Cl)ccc1CNC[C@@H]1CCC(=O)N1 [B-102] | – | – | 0.146 | 80.6
27 | COc1cc(-c2cccc(-c3cccc4c3CC[C@@H]4Oc3nc(OC)c(CNC(C)(C)C(=O)O)cc3C(F)(F)F)c2Cl)ccc1CNC[C@@H]1CCC(=O)N1 [B-121] | – | – | 0.064 | 1.62
28 | COc1nc(-c2cccc(-c3cccc4c3CC[C@@H]4Oc3nc(OC)c(CN4C5CCC4(C(=O)O)CC5)cc3C(F)(F)F)c2Cl)ccc1CN1CC2(CCC(=O)N2)C1 [B-227] | – | – | 0.064 | 3.12
29 | COc1nc(-c2cccc(-c3cccc4c3CC[C@@H]4Oc3nc(OC)c(CN4CC(C(=O)O)C5(CCC5)C4)cc3Cl)c2Cl)ccc1CNC[C@@H]1CCC(=O)N1 (some centres unmarked) [B-71] | – | – | 0.064 | 35.7
30 | COc1cc(-c2cccc(-c3cccc4c3CC[C@@H]4Oc3nc(OC)c(CN4CC[C@@H](C(=O)O)C4)cc3C(F)(F)F)c2Cl)cc(F)c1CNC[C@@H]1CCC(=O)N1 [B-195] | – | – | 0.064 | 5.79
31 | COc1nc(O[C@H]2CCc3c(-c4cccc(-c5cc(C)c(CN6C[C@@H]7C[C@]7(C(=O)O)C6)c(OC)n5)c4Cl)cccc32)c(Cl)cc1CNC[C@@H]1CCC(=O)N1 [B-132] | – | – | 0.266 | 301
32 | CNC(=O)C1CCN(Cc2cc(Cl)c(O[C@H]3CCc4c(-c5cccc(-c6ccc(CNC[C@@H]7CCC(=O)N7)c(OC)n6)c5Cl)cccc43)nc2OC)C1 (some centres unmarked) [B-88] | – | – | 0.064 | 26.4
33 | COc1nc(-c2cccc(-c3cccc4c3CC[C@@H]4Oc3nc(OC)c(CN4CCC[C@@]4(C)C(=O)O)cc3C)c2Cl)ccc1CNC[C@@H]1CCC(=O)N1 [B-237] | – | – | 0.064 | 20.7
34 | COc1nc(-c2cccc(-c3cccc4c3CC[C@@H]4Oc3nc(OC)c(CNC[C@H]4C[C@](C)(O)C4)cc3C(F)(F)F)c2Cl)ccc1CNC[C@@H]1CCC(=O)N1 [B-261] | – | – | 0.076 | 4.63
35 | COc1nc(-c2cccc(-c3cccc4c3CC[C@@H]4Nc3nc(OC)c(CNCC(=O)O)nc3C(F)(F)F)c2Cl)ccc1CNC[C@H]1C[C@](C)(O)C1 [A-87] | ≤ 0.064 | 22.3 | – | –
36 | COc1nc(-c2cccc(-c3cccc4c3CC[C@@H]4Oc3nc(OC)c(CNCC(=O)O)cc3C(F)(F)F)c2Cl)ccc1CNC[C@@H]1CCC(=O)N1 [B-272] | – | – | 0.064 | 2.26
37 | COc1nc(-c2cccc(-c3cccc4c3CC[C@@H]4Nc3nc(OC)c(CN4CC[C@@](C)(C(=O)O)C4)nc3C(F)(F)F)c2Cl)ccc1CN1CC(C)(O)C1 [A-68] | ≤ 0.064 | 83.7 | – | –
38 | COc1nc(-c2cccc(-c3cccc4c3CC[C@@H]4Oc3nc(OC)c(CNC4(C(=O)O)CC4)cc3C)c2Cl)ccc1CNC[C@@H]1CCC(=O)N1 [B-246] | – | – | 0.064 | 14
39 | COc1nc(-c2cccc(-c3cccc4c3CC[C@@H]4Nc3nc(OC)c(CN[C@H](C(=O)O)C4CC4)cc3C(F)(F)F)c2Cl)ccc1CN[C@H]1C[C@](C)(O)C1 [A-90] | ≤ 0.064 | 21.6 | – | –
40 | COc1nc(-c2cccc(-c3cccc4c3CC[C@@H]4Oc3nc(OCc4ccc(-n5cccn5)nc4)c(CN4CC5(C(=O)O)CCC4CC5)cc3Cl)c2Cl)ccc1CNC[C@@H]1CCC(=O)N1 [B-56] | – | – | 0.189 | 41

Source: US10774071B2, “PD-1/PD-L1 inhibitors” (Gilead Sciences, Inc., priority 2018, dated 2020)
